Data on 29 molecules can be found in ChEMBL document CHEMBL6127136, “Discovery of 1-(Phenylsulfonyl)-1,2,3,4-tetrahydroquinoline Derivative as Orally Bioavailable and Safe RORγt Inverse Agonists for Potential Treatment of Rheumatoid Arthritis” (J Med Chem, 2024).

In this test the target is T1, Nuclear receptor ROR-gamma (Homo sapiens, UniProt P51449).
T1 sequence (P51449 whole entry): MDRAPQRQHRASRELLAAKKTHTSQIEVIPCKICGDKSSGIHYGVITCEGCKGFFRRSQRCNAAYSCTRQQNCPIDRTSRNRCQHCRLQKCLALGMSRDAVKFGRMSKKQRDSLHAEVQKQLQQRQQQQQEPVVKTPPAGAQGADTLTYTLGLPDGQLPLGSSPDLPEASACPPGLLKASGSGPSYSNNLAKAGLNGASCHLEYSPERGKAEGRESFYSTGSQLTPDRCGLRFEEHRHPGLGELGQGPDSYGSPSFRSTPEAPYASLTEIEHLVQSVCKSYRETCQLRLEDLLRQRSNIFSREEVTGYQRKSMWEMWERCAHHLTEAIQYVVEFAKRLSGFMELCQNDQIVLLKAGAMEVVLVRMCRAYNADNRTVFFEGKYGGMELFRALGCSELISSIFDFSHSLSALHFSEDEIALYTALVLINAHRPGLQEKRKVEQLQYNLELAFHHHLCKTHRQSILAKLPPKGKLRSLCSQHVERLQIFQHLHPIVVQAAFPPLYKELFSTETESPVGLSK
The test can be described thus: Inverse agonist activity at N-terminal 6-His-tagged/APC-labeled human RORgammat LBD extracted from Escherichia coli assessed as inhibition of europium-labeled SRC-1 recruitment incubated for 3 hrs by TR-FRET analysis. A general note: In TR-FRET formats the signal depends on donor and acceptor labels being close together.

As usually defined, the pIC50 is the IC50 on a negative log10 scale, so that one unit is a factor of ten.

pIC50: −log10 of the molar value.

`CCc1ccc2c(c1)CCC(C)(C)N2S(=O)(=O)c1ccc(OCC2CCOCC2)c(CO)c1`: the pIC50 is 6.51.

As to `CCc1ccc2c(c1)CCCN2S(=O)(=O)c1ccc(OCC2CCOCC2)c(CO)c1`, the pIC50 is 6.07.

As for `CCc1ccc2c(c1)CCC(CC)N2S(=O)(=O)c1ccc(OCC2CCOCC2)c(CO)n1` (racemic), the pIC50 was 6.67.

Take `CCc1ccc2c(c1)CCC(CC)N2S(=O)(=O)c1ccc(OCc2ccncn2)c(CO)c1` (racemic): the pIC50 was 6.52.

With `CCc1ccc2c(c1)CCC(CC)N2S(=O)(=O)c1ccc(OCCC(C)(C)O)c(CO)c1` (racemic), the pIC50 is 6.34.

In the case of `CC1CCc2cc(C#N)ccc2N1S(=O)(=O)c1ccc(OCC2CCOCC2)c(CO)c1` (racemic), the pIC50 was 6.16.

Regarding `CCc1ccc2c(c1)CCC(CC)N2S(=O)(=O)c1ccc(OCC2CCOCC2)c(S(C)(=O)=O)c1` (racemic), the pIC50 was 5.73.

As for `CCc1ccc2c(c1)CC(C)CN2S(=O)(=O)c1ccc(OCC2CCOCC2)c(CO)c1` (racemic), the pIC50 is 7.44.

With `CCc1ccc2c(c1)CCC(CC)N2S(=O)(=O)c1ccc(C(CO)N2CCOCC2)c(CO)c1` (racemic), the pIC50 was 5.51.

In the case of `CCc1ccc2c(c1)CCC(CC)N2S(=O)(=O)c1ccc(OC2CN(C(C)=O)C2)c(CO)c1` (racemic), the pIC50 is 5.76.

`CCc1ccc2c(c1)CCC(C)N2S(=O)(=O)c1ccc(OCC2CCOCC2)c(CO)c1` (racemic): the negative-log IC50 (pIC50) was 7.62.

Regarding `CCC1CCc2cc(C(F)(F)F)ccc2N1S(=O)(=O)c1ccc(OCC2CCOCC2)c(CO)c1` (racemic), the pIC50 is 7.68.

`CCc1ccc2c(c1)C(C)CCN2S(=O)(=O)c1ccc(OCC2CCOCC2)c(CO)c1` (racemic): the pIC50 was 6.18.

As to `CCc1ccc2c(c1)CCC(CC)N2S(=O)(=O)c1ccc(OC2CCN(S(C)(=O)=O)CC2)c(CO)c1` (racemic), the pIC50 is 6.77.

Consider `CCC1CCc2cc(CC(C)(F)F)ccc2N1S(=O)(=O)c1ccc(OCC2CCOCC2)c(CO)c1` (racemic), for which the negative logarithm of the IC50 (pIC50) is 7.80.

As to `CCc1ccc2c(c1)CCC(CC)N2S(=O)(=O)c1ccc(C(O)CC2CCOCC2)c(CO)c1` (racemic), the pIC50 was 6.70.

For `CCC1CCc2cc(C(C)(C)O)ccc2N1S(=O)(=O)c1ccc(OCC2CCOCC2)c(CO)c1` (racemic), the negative-log IC50 (pIC50) is 5.85.

Take `CCc1ccc2c(c1)CCC(CC)N2S(=O)(=O)c1ccc(OCCS(C)(=O)=O)c(CO)c1` (racemic): the pIC50 is 5.84.

With `CC1CCc2cc(C3CC3)ccc2N1S(=O)(=O)c1ccc(OCC2CCOCC2)c(CO)c1` (racemic), the pIC50 was 7.68.

On to `CCC1CCc2cc(CC(F)(F)F)ccc2N1S(=O)(=O)c1ccc(OCC2CCOCC2)c(CO)c1` (racemic), for which the pIC50 is 7.64.

`CCc1ccc2c(c1)CCC(CC)N2S(=O)(=O)c1ccc(OCC2CCS(=O)(=O)CC2)c(CO)c1` (racemic): the pIC50 is 6.84.

As for `C=C(C)c1ccc2c(c1)CCC(CC)N2S(=O)(=O)c1ccc(OCC2CCOCC2)c(CO)c1` (racemic), the pIC50 was 7.92.

In the case of `CCc1ccc2c(c1)CCC(C(C)C)N2S(=O)(=O)c1ccc(OCC2CCOCC2)c(CO)c1` (racemic), the pIC50 is 8.70.

For `CCC1CCc2cc(C(C)(C)C)ccc2N1S(=O)(=O)c1ccc(OCC2CCOCC2)c(CO)c1` (racemic), the pIC50 was 7.15.

As for `CCc1ccc2c(c1)CCC(CC)N2S(=O)(=O)c1ccc(OCC2CCOCC2)c(S(N)(=O)=O)c1` (racemic), the pIC50 is 6.24.

In the case of `CCc1cnc2c(c1)CCC(CC)N2S(=O)(=O)c1ccc(OCC2CCOCC2)c(CO)c1` (racemic), the pIC50 is 7.46.

In the case of `CCc1ccc2c(c1)CCC(CC(C)C)N2S(=O)(=O)c1ccc(OCC2CCOCC2)c(CO)c1` (racemic), the pIC50 was 7.68.

For `CCc1ccc2c(c1)CC(CC)CN2S(=O)(=O)c1ccc(OCC2CCOCC2)c(CO)c1` (racemic), the pIC50 is 7.49.

As for `C=Cc1ccc2c(c1)CCC(CC)N2S(=O)(=O)c1ccc(OCC2CCOCC2)c(CO)c1` (racemic), the negative logarithm of the IC50 (pIC50) is 7.44.
